Among the data in patent US20230339981A1, “KRAS G12D MODULATING COMPOUNDS” (priority 2022, published 2023) are IC50 and EC50 values, retold here.

One may read the IC50 as the concentration that gives 50% inhibition. High values mean lower potency, low ones higher potency. A word on the EC50: it is the concentration at which the effect is half-maximal. High values mean a need for much substance, low ones an effect from little substance.

Assay [1] concerns the target GDP-loaded KRAS G12D (Homo sapiens (Human), UniProt P01116, G12D). Description: KRAS G12D (GDP) biochemical assay (TR-FRET probe displacement). Format: binding. Particulars: 2 hours. In short, it runs like this:
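TR-FRET probe displacement: 1:3 DMSO serial dilutions pre-incubated 30 min with GDP-bound KRAS G12D, followed by Eu-streptavidin/probe for 2 h at room temperature (Hepes pH 7.4, NaCl, MgCl2, Tween-20 buffer). IC50 defined as concentration halving TR-FRET ratio, from sigmoidal dose-response fit.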

The test system of assay [2] is GP2D (KRAS G12D) cells. The assay can be described thus: 2D cell viability assay (CellTiter-Glo). Format: cell-based. As to conditions: GP2d, 96 h, 4 days. Summed up: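 Viability was read by CellTiter-Glo after 4 days at 37 °C of 2D culture of KRAS G12D GP2D cells (1000/well, RPMI, 10% FBS) on pre-spotted threefold compound dilutions. EC50 was fitted with a sigmoidal dose-response model as the point of half-maximal luminescence loss.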
(In general: In ATP-based viability assays light output follows the ATP content of the culture.)

Sequence of GDP-loaded KRAS G12D (P01116-2 other isoform, or with tags, fused parts or gaps G12D): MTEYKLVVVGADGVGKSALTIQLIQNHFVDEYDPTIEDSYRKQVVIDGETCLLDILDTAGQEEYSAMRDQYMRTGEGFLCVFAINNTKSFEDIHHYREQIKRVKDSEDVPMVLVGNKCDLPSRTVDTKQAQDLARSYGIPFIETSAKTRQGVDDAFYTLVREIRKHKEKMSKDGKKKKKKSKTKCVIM

In the case of `C#Cc1c(F)ccc2cccc(-c3nc4c5c(nc(OCC67CC8(CC8)CN6CC6(CC6)C7)nc5c3F)N3C[C@H]5CC[C@H](N5)[C@@H]3[C@@H](C)C4)c12` [Example 158], the IC50 in assay [1] was determined as 12.5 nM. This molecule came in with an EC50 in assay [2] of 100 nM.
In assay [1], `C#Cc1c(F)ccc2cccc(-c3nc4c5c(nc(OC[C@@]67CCCN6C[C@H](F)C7)nc5c3F)N3C[C@H]5CC[C@H](N5)[C@@H]3[C@H](C)CC4)c12` [Example 159, (6R,6aS,7S,10R)-2-(8-ethynyl-7-fluoronaphthalen-1-yl)-1-fluoro-13-(((2R,7aS)-2-fluorotetrahydro-1H-pyrrolizin-7a(5H)-yl)methoxy)-6-methyl-5,6,6a,7,8,9,10,11-octahydro-4H-3,11a,12,14,15-pentaaza-7,10-methanocyclohepta[4,5]cycloocta[1,2,3-de]naphthalene] registered an IC50 of 100 nM. The half-maximal effective concentration (EC50) in assay [2] stood at 100 nM.
Molecule `C#Cc1c(F)ccc2cc(O)cc(-c3nc4c5c(nc(OCC6(CN7CC[C@H](OC(F)(F)F)C7)CC6)nc5c3F)N3C[C@H]5CC[C@H](N5)[C@H]3CCC4)c12` [Example 162] registered an IC50 in assay [1] of 0.4 nM. In assay [2], this molecule registered an EC50 of 0.5 nM.
For the molecule `C#Cc1c(F)ccc2cc(O)cc(-c3nc4c5c(nc(OC[C@@]67CCCN6[C@H](COCC(F)(F)F)CC7)nc5c3F)N3C[C@H]5CC[C@H](N5)[C@H]3CC4)c12` [Example 163, 5-ethynyl-6-fluoro-4-((5aR,6S,9R)-1-fluoro-12-(((3S,7aS)-3-((2,2,2-trifluoroethoxy)methyl)tetrahydro-1H-pyrrolizin-7a(5H)-yl)methoxy)-4,5,5a,6,7,8,9,10-octahydro-3,10a,11,13,14-pentaaza-6,9-methanonaphtho[1,8-ab]heptalen-2-yl)naphthalen-2-ol], in assay [1], the IC50 stood at 0.1 nM. Also, in assay [2], the EC50 was 5.1 nM.
On to `C#Cc1c(F)ccc2cccc(-c3nc4c5c(nc(OC[C@@]67CCCN6[C@H](COCC(F)(F)F)CC7)nc5c3F)N3C[C@H]5CC[C@H](N5)[C@H]3CC4)c12` [Example 164, (5aR,6S,9R)-2-(8-ethynyl-7-fluoronaphthalen-1-yl)-1-fluoro-12-(((3S,7aS)-3-((2,2,2-trifluoroethoxy)methyl)tetrahydro-1H-pyrrolizin-7a(5H)-yl)methoxy)-4,5,5a,6,7,8,9,10-octahydro-3,10a,11,13,14-pentaaza-6,9-methanonaphtho[1,8-ab]heptalene], for which the IC50 in assay [1] turned out to be 0.3 nM. For the same molecule, the midpoint of the response in assay [2], the EC50, lay at 38 nM.
In assay [1], `C#Cc1c(F)ccc2cccc(-c3nc4c5c(nc(OC[C@@]67CCCN6C[C@H](F)C7)nc5c3F)N3C[C@H]5CC[C@H](N5)[C@H]3CC[C@@H]4C)c12` [Example 174, (4S,6aR,7S,10R)-2-(8-ethynyl-7-fluoronaphthalen-1-yl)-1-fluoro-13-(((2R,7aS)-2-fluorotetrahydro-1H-pyrrolizin-7a(5H)-yl)methoxy)-4-methyl-5,6,6a,7,8,9,10,11-octahydro-4H-3,11a,12,14,15-pentaaza-7,10-methanocyclohepta[4,5]cycloocta[1,2,3-de]naphthalene] showed an IC50 of 5.7 nM. Also, the EC50 in assay [2] is 100 nM.
In the case of `C#Cc1c(F)ccc2cccc(-c3nc4c5c(nc(OCC6(CN7CCC8(CC7)CC8)CC6)nc5c3F)N3C[C@H]5CC[C@H](N5)[C@H]3CCC4)c12` [Example 178, (6aR,7S,10R)-13-((1-((6-azaspiro[2.5]octan-6-yl)methyl)cyclopropyl)methoxy)-2-(8-ethynyl-7-fluoronaphthalen-1-yl)-1-fluoro-5,6,6a,7,8,9,10,11-octahydro-4H-3,11a,12,14,15-pentaaza-7,10-methanocyclohepta[4,5]cycloocta[1,2,3-de]naphthalene], the IC50 in assay [1] came out at 0.7 nM. This molecule gave a 50% effective concentration (EC50) in assay [2] of 37.4 nM.
On to `C#Cc1c(F)ccc2cc(O)cc(-c3nc4c5c(nc(OCC6(CN7CCC(Oc8ccnc(C(F)(F)F)n8)CC7)CC6)nc5c3F)N3C[C@H]5CC[C@H](N5)[C@H]3CC4)c12` [Example 180, 5-ethynyl-6-fluoro-4-((5aR,6S,9R)-1-fluoro-12-((1-((4-((2-(trifluoromethyl)pyrimidin-4-yl)oxy)piperidin-1-yl)methyl)cyclopropyl)methoxy)-4,5,5a,6,7,8,9,10-octahydro-3,10a,11,13,14-pentaaza-6,9-methanonaphtho[1,8-ab]heptalen-2-yl)naphthalen-2-ol], for which the concentration for half-maximal inhibition (IC50) in assay [1] turned out to be 0.8 nM. In addition, the response in assay [2] was half-maximal at 5.1 nM (EC50).
Regarding `C#Cc1c(F)ccc2cccc(-c3nc4c5c(nc(OC[C@@]67CCCN6C[C@H](F)C7)nc5c3F)N3C[C@H]5CC[C@H](N5)[C@H]3C[C@H]4CC)c12` [Example 182, (4R,5aR,6S,9R)-4-ethyl-2-(8-ethynyl-7-fluoronaphthalen-1-yl)-1-fluoro-12-(((2R,7aS)-2-fluorotetrahydro-1H-pyrrolizin-7a(5H)-yl)methoxy)-4,5,5a,6,7,8,9,10-octahydro-3,10a,11,13,14-pentaaza-6,9-methanonaphtho[1,8-ab]heptalene], the IC50 in assay [1] worked out at 0.4 nM. The molecule also yielded an EC50 in assay [2] of 87 nM.
In assay [1], `C#Cc1c(F)ccc2cccc(-c3nc4c5c(nc(OC[C@@]67CCCN6C[C@H](F)C7)nc5c3F)N3C[C@H]5CC[C@H](N5)[C@H]3[C@H](C)C4)c12` [Example 184, (5R,5aR,6S,9R)-2-(8-ethynyl-7-fluoronaphthalen-1-yl)-1-fluoro-12-(((2R,7aS)-2-fluorotetrahydro-1H-pyrrolizin-7a(5H)-yl)methoxy)-5-methyl-4,5,5a,6,7,8,9,10-octahydro-3,10a,11,13,14-pentaaza-6,9-methanonaphtho[1,8-ab]heptalene] had an IC50 of 0.7 nM. The molecule further gave an EC50 in assay [2] of 19 nM.
In turn, `C#Cc1c(F)ccc2cccc(-c3nc4c5c(nc(OC[C@@]67CCCN6C[C@H](F)C7)nc5c3F)N3C[C@H]5CC[C@H](N5)[C@H]3C[C@H]4O)c12` [Example 186, (4R,5aR,6S,9R)-2-(8-ethynyl-7-fluoronaphthalen-1-yl)-1-fluoro-12-(((2R,7aS)-2-fluorotetrahydro-1H-pyrrolizin-7a(5H)-yl)methoxy)-4,5,5a,6,7,8,9,10-octahydro-3,10a,11,13,14-pentaaza-6,9-methanonaphtho[1,8-ab]heptalen-4-ol] returned a half-inhibitory concentration (IC50) in assay [1] of 0.2 nM. Also, the EC50 in assay [2] is 13 nM.
The corresponding values for `C#Cc1c(F)ccc2cccc(-c3nc4c5c(nc(OC[C@@]67CCCN6[C@H](COC(C(F)(F)F)(C(F)(F)F)C(F)(F)F)CC7)nc5c3F)N3C[C@H]5CC[C@H](N5)[C@H]3CC4)c12` [Example 187, (5aR,6S,9R)-2-(8-ethynyl-7-fluoronaphthalen-1-yl)-1-fluoro-12-(((3S,7aS)-3-(((1,1,1,3,3,3-hexafluoro-2-(trifluoromethyl)propan-2-yl)oxy)methyl)tetrahydro-1H-pyrrolizin-7a(5H)-yl)methoxy)-4,5,5a,6,7,8,9,10-octahydro-3,10a,11,13,14-pentaaza-6,9-methanonaphtho[1,8-ab]heptalene] are 0.9 nM and 62 nM.
`C#Cc1c(F)ccc2cccc(-c3nc4c5c(nc(OC[C@@]67CCCN6C[C@H](F)C7)nc5c3F)N3C[C@H]5CC[C@H](N5)[C@H]3CCCC4)c12` [Example 188, (7aR,8S,11R)-2-(8-ethynyl-7-fluoronaphthalen-1-yl)-1-fluoro-14-(((2R,7aS)-2-fluorotetrahydro-1H-pyrrolizin-7a(5H)-yl)methoxy)-4,5,6,7,7a,8,9,10,11,12-decahydro-3,12a,13,15,16-pentaaza-8,11-methanocyclohepta[4,5]cyclonona[1,2,3-de]naphthalene] came in with an IC50 in assay [1] of 0.2 nM. The molecule also yielded an EC50 in assay [2] of 100 nM.
The matching figures for `C#Cc1c(F)ccc2cccc(-c3cc4c5c(nc(OC[C@@]67CCCN6C[C@H](F)C7)nc5c3F)N3C[C@H]5CC[C@H](N5)[C@H]3CCC4)c12` [Example 192, (1S,4R,15aR)-11-(8-ethynyl-7-fluoronaphthalen-1-yl)-10-fluoro-8-(((2R,7aS)-2-fluorotetrahydro-1H-pyrrolizin-7a(5H)-yl)methoxy)-2,3,4,5,13,14,15,15a-octahydro-1H-1,4-epiminoazepino[1′,2′:1,8]azocino[2,3,4-de]quinazoline]: 0.1 nM and 4.5 nM.
The matching figures for `C#Cc1c(F)ccc2cc(N)cc(-c3cc4c5c(nc(OC[C@@]67CCCN6C[C@H](F)C7)nc5c3F)N3C[C@H]5CC[C@H](N5)[C@@H]3[C@@H](C)C4)c12` [Example 193, 5-ethynyl-6-fluoro-4-((1S,4R,14S,14aS)-10-fluoro-8-(((2R,7aS)-2-fluorotetrahydro-1H-pyrrolizin-7a(5H)-yl)methoxy)-14-methyl-1,2,3,4,5,13,14,14a-octahydro-1,4-epiminoazepino[1′,2′:1,7]azepino[2,3,4-de]quinazolin-11-yl)naphthalen-2-amine]: 0.05 nM and 4.9 nM.
For the molecule `C#Cc1c(F)ccc2cc(N)cc(-c3nc4c5c(nc(OC[C@@]67CCCN6C[C@H](F)C7)nc5c3F)N3C[C@H]5CC[C@H](N5)[C@@H]3CC[C@H]4C)c12` [Example 194, 5-ethynyl-6-fluoro-4-((4R,6aS,7S,10R)-1-fluoro-13-(((2R,7aS)-2-fluorotetrahydro-1H-pyrrolizin-7a(5H)-yl)methoxy)-4-methyl-5,6,6a,7,8,9,10,11-octahydro-4H-3,11a,12,14,15-pentaaza-7,10-methanocyclohepta[4,5]cycloocta[1,2,3-de]naphthalen-2-yl)naphthalen-2-amine], the IC50 in assay [1] was determined as 31 nM. The response in assay [2] was half-maximal at 70 nM (EC50).
